pIC50: −log10 of the molar value. Counter-ions that a name gives are not always drawn. Like-named read-outs stand apart in the source and are kept apart here.
Assays:
E. feacium DltA = target: T1, E. feacium DltA (Enterococcus faecium, UniProt Q3XZT7); test: in vitro DltA activity assay (luminescence, IC50 determination); format: biochemical
T1 sequence (Q3XZT7 1-504): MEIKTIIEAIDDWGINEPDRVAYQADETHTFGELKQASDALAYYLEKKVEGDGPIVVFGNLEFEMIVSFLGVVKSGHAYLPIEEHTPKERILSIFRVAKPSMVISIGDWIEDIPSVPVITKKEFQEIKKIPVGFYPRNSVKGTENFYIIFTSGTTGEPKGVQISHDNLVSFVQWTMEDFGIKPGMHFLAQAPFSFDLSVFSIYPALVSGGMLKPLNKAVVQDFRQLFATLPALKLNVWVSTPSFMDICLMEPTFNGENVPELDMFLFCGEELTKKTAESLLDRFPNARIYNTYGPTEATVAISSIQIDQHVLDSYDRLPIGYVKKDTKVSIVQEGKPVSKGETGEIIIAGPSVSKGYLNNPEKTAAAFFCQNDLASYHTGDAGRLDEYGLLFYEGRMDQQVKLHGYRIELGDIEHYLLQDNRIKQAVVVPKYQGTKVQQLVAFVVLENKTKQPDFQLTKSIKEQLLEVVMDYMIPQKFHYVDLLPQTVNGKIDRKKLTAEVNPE
Protocol: (§1) The effect of the compounds of the invention on DltA enzymes has been based on the measure of their inhibition of DltA activity in vitro. To this end, recombinant proteins DltA were expressed and purified after cloning of the genes of S. aureus, E. faecalis, E. faecium and S. agalactiae as described thereafter. The capacity of the compounds of the invention to inhibit DltA enzymatic activity was assessed using the DltA assays as described below: • The dltA gene was amplified from chromosomal DNA of S. aureus, E. faecalis, E. faecium and S. agalactiae and introduced into E. coli BL21 (Invitrogen, Carlsbad, CA) following manufacturer's instruction. Bacteria were grown at 37°C under aerobic conditions and isopropyl-beta-D-thiogalactopyranoside (IPTG) was added to 0.5-1 mM when OD600 of the bacterial culture had reached 0.5. After a further incubation for 3 hours, cells were harvested by centrifugation. Purification of the recombinant DltA protein was performed by affinity chromatography on nickel-nitrilotriacetic acid (Ni-NTA) column following manufacturer's instructions (Qiagen). Fractions containing recombinant DltA protein were adjusted to 50% glycerol and stored at -20°C until use.
(§2) The binding potency of the inhibitors against DltA enzyme was assessed by IC50 determination in an in vitro DltA activity assay. The assay buffer "AB" contained 50 mM Hepes pH8.0, 10mM MgCl2, 50mM KCI, 0.012% Triton-X100, 10mM DTT and 100nM Myelin-basic protein. The following components were added in a white polystyrene Costar plate up to a final volume of 30µL: 3µL DMSO, or inhibitor dissolved in DMSO and 27µL DltA enzyme in AB. After 30min of preincubation at room temperature, 30µL of Substrates mix in AB were added in each well to a final volume of 60µL. This reaction mixture was then composed of DltA (produced in house from S. aureus, E. faecalis, E. faecium and S. agalactiae), 0.5mM D-Alanine (Sigma), 0.5-5µM ATP (Sigma) and 0.05 u/ml inorganic pyrophosphatase (Sigma) in assay buffer. After typically 1-2hours of incubation at room temperature (conversion rate around 30%), 30µL of the revelation mix were added to a final volume of 90µL, including the following constituents at the respective final concentrations: 10000 u/ml luciferase (Sigma), 30µM D-luciferin (Sigma), 100µM N-acetylcysteamine (Aldrich). Luminescence intensity was immediately measured on a Fluostar Optima (BMG) (excitation 360nm, emission 520nm) and converted into inhibition percentages.
(§3) For compounds interfering with the luminescent signal (quenching), the same experiment without DltA enzyme was performed to allow quenching determination and correction.

S. aureus DltA = target: T2, S. aureus DltA (Staphylococcus aureus, UniProt Q2FZW6); test: as above; format: biochemical
T2 construct: made in house; host or cells: E. coli BL21
T2 sequence (Q2FZW6 1-485): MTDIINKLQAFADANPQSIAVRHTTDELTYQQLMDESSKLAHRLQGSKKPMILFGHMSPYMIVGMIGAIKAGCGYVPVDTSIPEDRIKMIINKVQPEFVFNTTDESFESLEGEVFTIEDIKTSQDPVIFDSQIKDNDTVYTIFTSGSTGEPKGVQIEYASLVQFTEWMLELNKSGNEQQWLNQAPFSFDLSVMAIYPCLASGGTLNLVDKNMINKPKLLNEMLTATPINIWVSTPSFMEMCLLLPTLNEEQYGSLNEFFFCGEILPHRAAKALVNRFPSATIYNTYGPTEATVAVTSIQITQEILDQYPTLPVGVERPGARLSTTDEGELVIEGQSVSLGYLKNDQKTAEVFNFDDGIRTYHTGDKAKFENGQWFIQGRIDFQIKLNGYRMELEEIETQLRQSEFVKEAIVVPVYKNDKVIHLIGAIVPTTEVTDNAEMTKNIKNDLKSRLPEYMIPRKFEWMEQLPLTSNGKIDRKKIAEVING
Protocol: as §1, §2, §3

E. feacalis DltA = target: T3, E. feacalis DltA (Enterococcus faecalis, UniProt Q830N0); test: biochemical
T3 sequence (Q830N0 1-506): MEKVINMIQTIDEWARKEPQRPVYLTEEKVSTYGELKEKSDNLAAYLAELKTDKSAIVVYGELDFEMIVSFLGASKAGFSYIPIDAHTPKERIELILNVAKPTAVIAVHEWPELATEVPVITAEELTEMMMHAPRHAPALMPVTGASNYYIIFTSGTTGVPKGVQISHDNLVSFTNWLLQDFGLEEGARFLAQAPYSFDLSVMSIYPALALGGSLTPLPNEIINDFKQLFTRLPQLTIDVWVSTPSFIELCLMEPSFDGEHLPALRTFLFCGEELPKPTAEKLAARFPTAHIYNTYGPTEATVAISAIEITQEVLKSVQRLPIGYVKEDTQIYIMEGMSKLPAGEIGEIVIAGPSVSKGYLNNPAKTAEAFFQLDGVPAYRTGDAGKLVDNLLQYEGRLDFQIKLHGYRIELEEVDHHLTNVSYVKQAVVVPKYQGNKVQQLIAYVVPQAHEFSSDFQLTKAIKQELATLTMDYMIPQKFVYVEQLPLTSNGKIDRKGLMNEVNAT
Protocol: as §1, with “To” for “The effect of the compounds of the invention on DltA enzymes has been based on the measure of their inhibition of DltA activity in vitro. To”
as §2, §3

S. Agalactiae DltA = target: T4, S. Agalactiae DltA (Streptococcus agalactiae serotype III, UniProt Q8VM67); test: biochemical
T4 sequence (Q8VM67 1-511): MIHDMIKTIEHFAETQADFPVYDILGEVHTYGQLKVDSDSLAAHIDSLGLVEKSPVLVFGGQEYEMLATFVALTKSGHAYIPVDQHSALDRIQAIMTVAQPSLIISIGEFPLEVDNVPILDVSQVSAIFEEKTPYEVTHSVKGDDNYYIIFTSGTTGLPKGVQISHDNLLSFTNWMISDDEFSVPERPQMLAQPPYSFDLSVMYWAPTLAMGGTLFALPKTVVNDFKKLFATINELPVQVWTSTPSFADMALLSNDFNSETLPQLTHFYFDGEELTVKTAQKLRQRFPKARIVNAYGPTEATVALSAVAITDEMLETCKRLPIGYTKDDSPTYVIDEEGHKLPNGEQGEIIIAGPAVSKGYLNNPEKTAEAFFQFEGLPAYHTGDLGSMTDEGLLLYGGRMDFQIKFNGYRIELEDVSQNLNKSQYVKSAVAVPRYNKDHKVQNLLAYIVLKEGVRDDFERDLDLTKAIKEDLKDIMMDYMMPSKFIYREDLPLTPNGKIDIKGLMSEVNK
Protocol: as §1, with “To” for “The effect of the compounds of the invention on DltA enzymes has been based on the measure of their inhibition of DltA activity in vitro. To”
as §2, §3

[1] = recombinant DltA, 30min preincubation at room temperature, 0.5mM D-Alanine, 0.5-5µM ATP, read-out: E. feacium DltA IC50

O=c1[nH]cnc2c(-c3ccc4c(c3)ncn4C3CCCCC3)sc(N3C[C@@H]4[C@@H](CO)[C@@H]4C3)c12 [Example 30, 7-(1-Cyclohexyl-1H-benzimidazol-5-yl)-5-((1R,5S,6R)-6-hydroxymethyl-3-aza-bicyclo[3.1.0]hex-3-yl)-3H-thieno[3,4-d]pyrimidin-4-one]
pIC50 (E. feacium DltA; [1]): 6.49 | pIC50 (S. aureus DltA): 6.66 | pIC50 (E. feacalis DltA): 6.80 | pIC50 (S. Agalactiae DltA): 5.70

CN(C)CCCn1cc(-c2ccc3c(c2)ncn3C2CCCCC2)c2nc[nH]c(=O)c21 [Example 80, 7-(1-Cyclohexyl-1H-benzimidazol-5-yl)-5-(3-dimethylamino-propyl)-3,5-dihydro-pyrrolo[3,2-d]pyrimidin-4-one]
pIC50 (E. feacium DltA; [1]): 6.21 | pIC50 (S. aureus DltA): 6.57 | pIC50 (E. feacalis DltA): 7.26 | pIC50 (S. Agalactiae DltA): 5.82

O=c1[nH]cnc2c(-c3ccc4c(c3)ncn4C3CCCCC3)cn([C@H]3CCCNC3)c12 [Example 76, 7-(1-Cyclohexyl-1H-benzimidazol-5-yl)-5-(S)-piperidin-3-yl-3,5-dihydro-pyrrolo[3,2-d]pyrimidin-4-one]
pIC50 (E. feacium DltA; [1]): 6.34 | pIC50 (S. aureus DltA): 7.17 | pIC50 (E. feacalis DltA): 7.16 | pIC50 (S. Agalactiae DltA): 5.92

O=c1[nH]cnc2c(-c3ccc4c(c3)ncn4C3CCCCC3)sc(N3CC4C(O)C4C3)c12 (stereo not drawn) [Example 17, 7-(1-Cyclohexyl-1H-benzoimidazol-5-yl)-5-(6-hydroxy-3-aza-bicyclo[3.1.0]hex-3-yl)-3H-thieno[3,4-d]pyrimidin-4-one]
pIC50 (E. feacium DltA; [1]): 6.72 | pIC50 (S. aureus DltA): 6.66 | pIC50 (E. feacalis DltA): 7.07 | pIC50 (S. Agalactiae DltA): 5.66

O=c1[nH]cnc2c(-c3ccc4c(c3)ncn4C3CCCCC3)sc(N3C[C@H](CO)[C@@H](CO)C3)c12 [Example 35, 5-((3R,4R)-3,4-Bis-hydroxymethyl-pyrrolidin-1-yl)-7-(1-cyclohexyl-1H-benzoimidazol-5-yl)-3H-thieno[3,4-d]pyrimidin-4-one]
pIC50 (E. feacium DltA; [1]): 7.03 | pIC50 (S. aureus DltA): 7.27 | pIC50 (E. feacalis DltA): 7.41 | pIC50 (S. Agalactiae DltA): 6.06

CN1CC=C(c2sc(-c3ccc4c(c3)ncn4C3CCCCC3)c3nc[nH]c(=O)c23)CC1 [Example 38, hydrochloride]
pIC50 (E. feacium DltA): 6.89 | pIC50 (S. aureus DltA): 6.89 | pIC50 (E. feacalis DltA): 7.38 | pIC50 (S. Agalactiae DltA): 6.04

O=c1[nH]cnc2c1c(CCCO)cn2-c1ccc2c(c1)ncn2C1CCCCC1 [Example 51, 7-(1-Cyclohexyl-1H-benzoimidazol-5-yl)-5-(3-hydroxy-propyl)-3,7-dihydro-pyrrolo[2,3-d]pyrimidin-4-one]
pIC50 (E. feacium DltA; [1]): 5.92 | pIC50 (S. aureus DltA): 5.96 | pIC50 (E. feacalis DltA): 6.48 | pIC50 (S. Agalactiae DltA): 5.35

CCn1cnc2cc(-c3sc(N4CC[C@H](CO)C4)c4c(=O)[nH]cnc34)ccc21 [Example 45, 7-(1-ethyl-1H-benzoimidazol-5-yl)-5-((S)-3-hydroxymethyl-pyrrolidin-1-yl)-3H-thieno[3,4-d]pyrimidin-4-one]
pIC50 (E. feacium DltA; [1]): 6.41 | pIC50 (S. aureus DltA): 6.89 | pIC50 (E. feacalis DltA): 7.15 | pIC50 (S. Agalactiae DltA): 5.47

O=c1[nH]cnc2c(-c3ccc4c(c3)ncn4C3CCCCC3)sc(C3=CCNCC3)c12 [Example 37, 7-(1-cyclohexyl-1H-benzoimidazol-5-yl)-5-(1,2,3,6-tetrahydro-pyridin-4-yl)-3H-thieno[3,4-d]pyrimidin-4-one hydrochloride]
pIC50 (E. feacium DltA; [1]): 7.38 | pIC50 (S. aureus DltA): 7.17 | pIC50 (E. feacalis DltA): 7.60 | pIC50 (S. Agalactiae DltA): 6.18

O=c1[nH]cnc2c(-c3ccc4c(c3)ncn4C3CCCCC3)cn(C3CCNCC3)c12 [Example 73, 7-(1-Cyclohexyl-1H-benzimidazol-5-yl)-5-piperidin-4-yl-3,5-dihydro-pyrrolo[3,2-d]pyrimidin-4-one]
pIC50 (E. feacium DltA; [1]): 6.55 | pIC50 (S. aureus DltA): 7.14 | pIC50 (E. feacalis DltA): 7.21 | pIC50 (S. Agalactiae DltA): 6.00

O=c1[nH]cnc2c(-c3ccc4c(c3)ncn4C3CCCCC3)sc(N3CCC(CCO)C3)c12 (stereo not drawn) [Example 11, 7-(1-Cyclohexyl-1H-benzoimidazol-5-yl)-5-[3-(2-hydroxy-ethyl)-pyrrolidin-1-yl]-3H-thieno[3,4-d]pyrimidin-4-one]
pIC50 (E. feacium DltA; [1]): 6.72 | pIC50 (S. aureus DltA): 6.85 | pIC50 (E. feacalis DltA): 6.92 | pIC50 (S. Agalactiae DltA): 5.27

O=c1[nH]cnn2c(-c3ccc4c(c3)ncn4C3CCCCC3)cc(N3CC[C@H](CO)C3)c12 [Example 63, 7-(1-Cyclohexyl-1H-benzoimidazol-5-yl)-5-((S)-3-hydroxymethyl-pyrrolidin-1-yl)-3H-pyrrolo[2,1-f][1,2,4]triazin-4-one]
pIC50 (E. feacium DltA; [1]): 5.96 | pIC50 (S. aureus DltA): 6.34 | pIC50 (E. feacalis DltA): 6.46 | pIC50 (S. Agalactiae DltA): 4.60

Reference: patent EP2913333A1 (priority 2014, dated 2015)
